# Measurements taken from patent publication US4943561A, “Gastrin releasing peptide antagonist” (Merck & Co., Inc., priority 1988, dated 1990).
# Residues, ends and D or L forms follow the SMILES beside them. *: point of attachment. NH(2-Me-nonan-4R-yl) = CCCCC[C@H](CC(C)C)N*; NHCH(iBu)2 = CC(C)CC(CC(C)C)N*; X1 = CCCCC[C@@H](CC(C)C)N*; X2 = CCCC=C[C@H](CC(C)C)N*; Boc = CC(C)(C)OC(=O)*; Piv = CC(C)(C)C(=O)*; Ms = CS(=O)(=O)*
# Molecular target: T1, GRP receptor (Mus musculus, UniProt P21729)
# T1 construct: endogenous in cells; host or cells: Swiss 3T3 fibroblasts (intact monolayers)
# T1 sequence (P21729 whole entry): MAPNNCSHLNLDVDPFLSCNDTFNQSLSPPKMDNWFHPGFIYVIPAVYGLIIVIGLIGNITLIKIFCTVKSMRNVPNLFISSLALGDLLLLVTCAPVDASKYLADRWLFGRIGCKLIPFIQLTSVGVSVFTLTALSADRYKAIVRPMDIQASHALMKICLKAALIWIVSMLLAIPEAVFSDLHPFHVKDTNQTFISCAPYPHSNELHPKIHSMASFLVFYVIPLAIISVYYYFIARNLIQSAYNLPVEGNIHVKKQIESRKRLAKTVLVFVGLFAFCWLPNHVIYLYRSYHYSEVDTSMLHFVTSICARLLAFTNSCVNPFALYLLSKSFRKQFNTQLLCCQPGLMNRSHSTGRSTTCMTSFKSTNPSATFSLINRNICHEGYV
# Assay: Procedure A: Binding Inhibition Studies (competition with [3H-Phe15]GRP15-27)
# Design: species or system murine
# Conditions: Swiss 3T3 cells; 3 nM [3H-Phe15]GRP15-27; 60 minutes at 15° C.
# Experimental: (§1) The activity of the peptide derivatives of the present invention as GRP antagonists was determined in competitive binding assays with a radio-active GRP derivative. Swiss 3T3 fibroblasts were used in these tests as the source of GRP receptor. Because these cells respond to GRP binding with a rapid increase in DNA synthesis, compounds that bind to the GRP receptor can also be tested for their ability to stimulate DNA synthesis. New DNA synthesis is one of the early steps in cell division and is widely accepted as a measure of mitogenicity or cell growth. […] Compounds which block DNA synthesis are mitogenic antagonists.
# Swiss 3T3 cells, obtained from Dr. K. Brown (Institute of Animal Physiology, Cambridge, U.K.), were grown to confluency in Costar 12 -well plates containing DMEM (Gibco) supplemented with 10% fetal bovine serum, 2 mM glutamine and 1% penicillin-streptomycin. The cells were washed twice with binding buffer [1:1 DMEM:Waymouths MB752/1 medium, plus 1 mg/ml BSA (Fraction V, Calbiochem)]. The antagonist was dissolved in 10 mM HCl, and diluted to the appropriate concentration in binding buffer. The antagonist was then added to the cells, followed by [^3 H Phe^15 ]GRP15-27 at a final concentration of 3 nM. After 60 minutes incubation at 15° C., the supernatant liquid was removed and the cell monolayer rinsed four times with washing buffer (150 mM NaCl, 20 mM Na2 HPO4, 5mM KCl, 1.8 mM KH2 PO4, 1 mg/ml BSA) The cells were then lysed with 1 ml/well of lysis buffer (1% Triton X-100, 0.1% BSA), and the solution was aspirated into scintillation vials for counting. Each data point was collected in triplicate.
row,IC50 [nM],Structure (SMILES)
1,17,CCCCC[C@@H](CC(C)C)NC(=O)[C@H](Cc1c[nH]cn1)NC(=O)CNC(=O)[C@@H](NC(=O)[C@H](C)NC(=O)[C@H](Cc1c[nH]c2ccccc12)NC(=O)[C@H](Cc1c[nH]cn1)NC(C)=O)C(C)C [1(S)] (Ac-HWAVGH-X1)
2,11,CCCC=C[C@H](CC(C)C)NC(=O)[C@H](Cc1c[nH]cn1)NC(=O)CNC(=O)[C@@H](NC(=O)[C@H](C)NC(=O)[C@H](Cc1c[nH]c2ccccc12)NC(=O)[C@H](Cc1c[nH]cn1)NC(C)=O)C(C)C [2(S)] (Ac-HWAVGH-X2)
3,15,CCCCC[C@H](CC(C)C)NC(=O)[C@H](Cc1c[nH]cn1)NC(=O)CNC(=O)[C@@H](NC(=O)[C@H](C)NC(=O)[C@H](Cc1c[nH]c2ccccc12)NC(=O)[C@H](Cc1c[nH]cn1)NS(C)(=O)=O)C(C)C [3(R)] (Ms-HWAVGH-{NH(2-Me-nonan-4R-yl)})
4,2,CCCCC[C@H](CC(C)C)NC(=O)[C@H](Cc1c[nH]cn1)NC(=O)CNC(=O)[C@@H](NC(=O)[C@H](C)NC(=O)[C@H](Cc1c[nH]c2ccccc12)NC(=O)[C@H](Cc1c[nH]cn1)NC(=O)OC(C)(C)C)C(C)C [5(R)] (Boc-HWAVGH-{NH(2-Me-nonan-4R-yl)})

# Further lines, the compound ahead of its results:
row,Structure (SMILES),IC50 [nM]
1,CCCCC[C@H](CC(C)C)NC(=O)[C@H](Cc1c[nH]cn1)NC(=O)CNC(=O)[C@@H](NC(=O)[C@H](C)NC(=O)[C@H](Cc1c[nH]c2ccccc12)NC(=O)[C@H](Cc1c[nH]cn1)NC(C)=O)C(C)C [1(R)] (Ac-HWAVGH-{NH(2-Me-nonan-4R-yl)}),2
2,CCCCC[C@H](CC(C)C)NC(=O)[C@H](Cc1c[nH]cn1)NC(=O)CNC(=O)[C@@H](NC(=O)[C@H](C)NC(=O)[C@H](Cc1c[nH]c2ccccc12)NC(=O)[C@H](Cc1c[nH]cn1)NC(=O)C(C)(C)C)C(C)C [4(R)] (Piv-HWAVGH-{NH(2-Me-nonan-4R-yl)}),3
3,CC(=O)N[C@@H](Cc1c[nH]cn1)C(=O)N[C@@H](Cc1c[nH]c2ccccc12)C(=O)N[C@@H](C)C(=O)N[C@H](C(=O)NCC(=O)N[C@@H](Cc1c[nH]cn1)C(=O)NC(CC(C)C)CC(C)C)C(C)C [Example 6] (Ac-HWAVGH-{NHCH(iBu)2}),2

# System: Swiss 3T3 cells
# Assay: Procedure C: Mitogenesis Inhibition (GRP-stimulated 3H-thymidine uptake)
# Assay type: cell-based, murine
# Conditions: GRP plus antagonist, 48 hours
# Experimental: as §1, with “antagonists. […] Swiss 3T3 cells were grown in monolayer culture in 24 -well plates (Costar) in serum free DMEM for 48 hours, at which time the GRP or a GRP homologue. The antagonist and 23 nM ^3 H-thymidine were added. After an additional 48 hours, the cell monolayer was washed twice with PBS, and the cells were then removed with 1 ml 10x trypsin containing 5 mM EDTA. The cells were harvested with a Skatron filter apparatus, and the filters counted in a scintillation counter.” for “antagonists.”
row,Structure (SMILES),IC50 [nM]
1,CCCCC[C@H](CC(C)C)NC(=O)[C@H](Cc1c[nH]cn1)NC(=O)CNC(=O)[C@@H](NC(=O)[C@H](C)NC(=O)[C@H](Cc1c[nH]c2ccccc12)NC(=O)[C@H](Cc1c[nH]cn1)NC(=O)C(C)(C)C)C(C)C [4(R)] (Piv-HWAVGH-{NH(2-Me-nonan-4R-yl)}),2
